# Values of other authors in patent US20150313904A1 (Teva Pharmaceuticals Ltd., priority 2014, published 2015).
# Test system: Crohn's disease patients
# Conditions: azathioprine-treated patients; Summers et al. 1979
compound,measurement,value
Cn1cnc([N+](=O)[O-])c1Sc1ncnc2nc[nH]c12 [azathioprine],time of maximum decrease in the mean CDAI score,9 weeks
